Earlier results as cited in patent EP2965746B1 (Santa Farma Ilaç Sanayi A.S., priority 2014, dated 2016).
Converted amounts (≈) assume the structure as drawn.

Legend:
[1] = in water
[2] = in vivo
[3] = in vivo; remark: listed apart in the source

Row | SMILES | solubility [1] [µg/mL] | absolute bioavailability [2] | time to reach maximum plasma concentration (Tmax) [3] [h]
1 | CC(C)Cc1ccc(C(C)C(=O)O)cc1 (racemic) [Ibuprofen, (±)-(R,S)-2-(4-isobutylphenyl)-propionic acid] | 0.078 (≈ 0.378 µM) | about 100% | 1.4 ± 1.1
2 | CC(C)Cc1ccc(C(C)C(=O)O)cc1.O.O.[Na] (stereo not shown) [Ibuprofen sodium dihydrate, ibuprofen sodium dihydrate] |  |  | 0.6 ± 0.3
